According to PubChem BioAssay (NCI):
Where “and” joins values, the source holds several entries; their conditions need not be identical. Equal values may be shown once.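 Assay format: 96-well plates, 48-hour exposure. Abbreviation: GI50, concentration required for 50% inhibition of growth. At the TGI there is no net growth.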

How the values were obtained:
Test in all cases: growth of human tumour cells (NCI), 48 h; in the data active means GI50 below about 0.43 µM; inactive means the rest
[1] = test system: UACC-257 melanoma
[2] = test system: HS 578T breast
[3] = test system: IGROV1 ovarian
[4] = test system: SNB-19 CNS
[5] = test system: PC-3 prostate
[6] = test system: SR leukemia
[7] = test system: LOX IMVI melanoma
[8] = test system: DU-145 prostate
[9] = test system: MCF7 breast
[10] = test system: U251 CNS

Clc1ccc(COC(Cn2ccnc2)c2ccc(Cl)cc2Cl)cc1 (centres undefined)
6.63 µM and 28.7 µM and 24 µM: TGI [9]
22.9 µM and 38.8 µM and 40.5 µM: TGI [2]
10.6 µM and 21.6 µM and 14.7 µM: TGI [6]
9.14 µM and 27.7 µM and 22.5 µM: TGI [1]
7.46 µM and 28.6 µM and 26 µM: TGI [10]
17.9 µM and 32.3 µM and 30.5 µM: TGI [4]
inactive: GI50 [1] 2.63 µM | GI50 [2] 3.72 µM | GI50 [3] 2.62 µM | GI50 [4] 3.35 µM | GI50 [5] 1.8 µM | GI50 [6] 2.79 µM | GI50 [7] 0.533 µM | GI50 [8] 5.41 µM | GI50 [9] 2.43 µM | GI50 [10] 2.04 µM
12.3 µM and 25.8 µM and 26.1 µM: TGI [3]
8.78 µM and 23.4 µM and 21.9 µM: TGI [5]
17.8 µM and 30.1 µM and 28.2 µM: TGI [8]

O=C(Nc1ccc(OC(F)(F)F)cc1)c1sccc1NCc1ccnc2ccccc12
inactive: GI50 [1] 3.62 µM | GI50 [2] 3.39 µM | GI50 [3] 1.68 µM | GI50 [4] 13 µM | GI50 [5] 3.74 µM | GI50 [6] 4.25 µM | GI50 [7] 2.85 µM | GI50 [8] 3.65 µM | GI50 [9] 4.19 µM | GI50 [10] 6.92 µM
36 µM: TGI [9]
13.5 µM: TGI [7]
6.37 µM: TGI [3]
> 83.3 µM: TGI [5]
> 100 µM: TGI [4] | TGI [6] | TGI [8] | TGI [10]
52.5 µM: TGI [1]
26 µM: TGI [2]

CCOC(=O)c1c(NC(=O)c2ccc(C(C)C)cc2)sc2c(CN(C)C)c(O)ccc12
4.61 µM: TGI [1]
3.23 µM: TGI [7]
5.3 µM: TGI [4]
4.37 µM: TGI [2]
5.71 µM: TGI [5]
3.77 µM: TGI [9]
8.69 µM: TGI [3]
inactive: GI50 [1] 2.12 µM | GI50 [2] 2.01 µM | GI50 [3] 2.89 µM | GI50 [4] 2.36 µM | GI50 [5] 2.18 µM | GI50 [6] 2.09 µM | GI50 [7] 1.76 µM | GI50 [8] 2.2 µM | GI50 [9] 1.75 µM | GI50 [10] 2.59 µM
6.44 µM: TGI [6]
5.21 µM: TGI [8]
7.13 µM: TGI [10]

Fc1cccc(COc2ccc(Nc3ncnc4sc(-c5ccco5)cc34)cc2Cl)c1
> 25 µM: TGI [1] | TGI [2] | TGI [3] | TGI [4] | TGI [5] | TGI [6] | TGI [7] | TGI [8] | TGI [9] | TGI [10]
inactive: GI50 [1] > 25 µM | GI50 [2] > 25 µM | GI50 [3] > 25 µM | GI50 [4] > 25 µM | GI50 [5] > 25 µM | GI50 [6] > 25 µM | GI50 [7] > 25 µM | GI50 [8] > 25 µM | GI50 [9] > 25 µM | GI50 [10] > 25 µM

CC1(C)O[C@H]2OC3CCC(=O)CC3(O)[C@H]2O1 (some centres undefined)
> 100 µM: TGI [1] | TGI [2] | TGI [3] | TGI [4] | TGI [5] | TGI [6] | TGI [7] | TGI [8] | TGI [9] | TGI [10]

CC(C)(C)OC(=O)NCC(C#N)CNC(=O)OC(C)(C)C
> 100 µM: TGI [1] | TGI [2] | TGI [3] | TGI [4] | TGI [5] | TGI [6] | TGI [7] | TGI [8] | TGI [9] | TGI [10]

Nc1cc2c3c(cccc3c1)NC2=O
> 100 µM: TGI [1] | TGI [2] | TGI [3] | TGI [4] | TGI [5] | TGI [6] | TGI [7] | TGI [8] | TGI [9] | TGI [10]
